In patent US7371769B2, “Tetrahydropyridin-4-yl indoles with a combination of affinity for dopamine-D2 receptors and serotonin reuptake sites” (Solvay Pharmaceuticals B.V., priority 2004, dated 2008):
Counter-ions that a name gives are not always drawn.

Experiments:
serotonin reuptake sites = target: T1, serotonin reuptake sites (Rattus norvegicus, UniProt P31652); assay: In vitro affinity for serotonin reuptake sites ([3H]-paroxetine binding assay); conditions: read-out: 5-HT reuptake pKi (converted)
T1 construct: from tissue; host or cells: rat cortical membranes (from the title of the cited method only)
Description: In vitro Affinity for Serotonin Reuptake Sites
Affinity of the compounds for serotonin reuptake sites was determined using the receptor binding assay described by E. Habert et al.,: “Characterisation of [^3H]-paroxetine binding to rat cortical membranes”, Eur. J. Pharmacol., 118, 107-114, 1985.
(§1) The affinity of the compounds of the invention for dopamine-D2 receptors and serotonine reuptake sites was determined as described above. From the binding affinity measured for a given compound of formula (1), one can estimate a theoretical lowest effective dose. At a concentration of the compound equal to twice the measured Ki-value, 100% of the receptors likely will be occupied by the compound. Converting that concentration to mg of compound per kg of patient yields a theoretical lowest effective dose, assuming ideal bioavailability. Pharmacokinetic, pharmacodynamic, and other considerations may alter the dose actually administered to a higher or lower value. The dosage expediently administered is 0.001-1000 mg/kg, preferably 0.1-100 mg/kg of patient's bodyweight.

dopamine-D2 receptors = target: T2, dopamine-D2 receptors (Rattus norvegicus, UniProt P61169); assay: In vitro affinity for dopamine-D2 receptors ([3H]-spiroperidol receptor binding assay); conditions: read-out: Dopamine-D2 pKi (converted)
T2 construct: labels dopamine receptors in rat pituitary and brain; from tissue; host or cells: rat pituitary / brain (from the title of the cited method only)
Description: In vitro Affinity for Dopamine-D2 Receptors
Affinity of the compounds for dopamine-D2 receptors was determined using the receptor binding assay described by I. Creese, R. Schneider and S. H. Snyder: “[^3H]-Spiroperidol labels dopamine receptors in rat pituitary and brain”, Eur. J. Pharmacol., 46, 377-381,1977.
as §1

T1 sequence (P31652 whole entry): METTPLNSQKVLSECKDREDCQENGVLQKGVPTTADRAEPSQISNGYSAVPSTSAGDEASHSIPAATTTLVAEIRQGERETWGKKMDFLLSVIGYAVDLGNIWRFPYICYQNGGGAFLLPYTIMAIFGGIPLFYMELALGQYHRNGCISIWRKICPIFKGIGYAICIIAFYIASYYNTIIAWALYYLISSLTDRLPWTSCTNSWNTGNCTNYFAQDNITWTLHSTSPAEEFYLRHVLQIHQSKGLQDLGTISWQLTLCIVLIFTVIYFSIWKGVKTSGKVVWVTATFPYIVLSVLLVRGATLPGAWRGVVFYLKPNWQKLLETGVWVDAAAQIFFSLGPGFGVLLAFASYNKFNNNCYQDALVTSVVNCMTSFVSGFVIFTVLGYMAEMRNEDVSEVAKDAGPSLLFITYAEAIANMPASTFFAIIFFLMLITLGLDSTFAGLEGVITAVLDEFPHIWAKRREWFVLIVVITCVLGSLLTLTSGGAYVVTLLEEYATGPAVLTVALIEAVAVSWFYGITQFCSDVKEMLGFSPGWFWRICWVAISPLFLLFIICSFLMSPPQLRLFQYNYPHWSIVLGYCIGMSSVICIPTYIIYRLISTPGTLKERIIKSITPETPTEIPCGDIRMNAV
T2 sequence (P61169 whole entry): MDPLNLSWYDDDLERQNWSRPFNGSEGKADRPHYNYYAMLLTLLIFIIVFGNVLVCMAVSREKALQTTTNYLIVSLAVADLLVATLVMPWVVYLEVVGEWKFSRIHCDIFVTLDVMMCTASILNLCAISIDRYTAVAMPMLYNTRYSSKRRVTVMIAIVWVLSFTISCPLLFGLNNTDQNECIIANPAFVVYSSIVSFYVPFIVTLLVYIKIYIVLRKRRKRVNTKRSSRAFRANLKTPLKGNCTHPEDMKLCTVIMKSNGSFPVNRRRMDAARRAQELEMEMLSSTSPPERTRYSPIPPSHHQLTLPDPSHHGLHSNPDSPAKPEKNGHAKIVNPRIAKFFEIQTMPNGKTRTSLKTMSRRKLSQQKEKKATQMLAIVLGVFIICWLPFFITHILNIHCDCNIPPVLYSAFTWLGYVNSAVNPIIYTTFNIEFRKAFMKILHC

SMILES	melting point	Ki (serotonin reuptake sites)	Ki (dopamine-D2 receptors)
Cc1nc2c(C)cccn2c(=O)c1CCN1CC=C(c2c[nH]c3ccc(F)cc23)CC1 (as salt: salt)	229 to 230 °C		
Cc1ncn(C)c(=O)c1CCN1CC=C(c2c[nH]c3ccc(F)cc23)CC1 (as salt: salt) [Compound 33]	234 to 235 °C (dec.)		
CSc1nc(C)c(CCN2CC=C(c3c[nH]c4ccccc34)CC2)c(=O)[nH]1 [Compound 14]		50.1 nM	100 nM
CSc1nc(C)c(CCN2CC=C(c3c[nH]c4ccccc34)CC2)c(=O)n1C (as salt: salt)	245 to 246 °C		
COc1nc(C)c(CCN2CC=C(c3c[nH]c4ccccc34)CC2)c(=O)n1C (as salt: HCl) [Compound 18, 5-[2-[4-(1H-indol-3-yl)-1,2,3,6-tetrahydropyridin-1-yl]ethyl]-2-methoxy-3,6-dimethyl-3H-pyrimidin-4-one]	209 to 211 °C		
CCc1ccn2c(=O)c(CCN3CC=C(c4c[nH]c5ccc(F)cc45)CC3)c(C)nc2c1 (as salt: salt) [Compound 24]	198 to 201 °C		
Cc1nc2cc(-c3ccccc3)ccn2c(=O)c1CCN1CC=C(c2c[nH]c3ccccc23)CC1 (as salt: salt) [Compound 27]	211 to 224 °C		
Cc1ccn2c(=O)c(CCN3CC=C(c4c[nH]c5ccc(F)cc45)CC3)c(C)nc2c1 [Compound 21]		0.158 nM	31.6 nM
Cc1nc2c(C)cccn2c(=O)c1CCN1CC=C(c2c[nH]c3ccccc23)CC1 (as salt: salt) [Compound 22, 3-[2-[4-(1H-indol-3-yl)-1,2,3,6-tetrahydropyridin-1-yl]-ethyl]-2,9-dimethyl-4H-pyrido[1,2-a]pyrimidin-4-one]	242 to 246 °C		
Cc1nc2n(c(=O)c1CCN1CC=C(c3c[nH]c4ccccc34)CC1)CCS2 [Compound 10]		1.58 nM	15.8 nM
Cc1ccn2c(=O)c(CCN3CC=C(c4c[nH]c5ccccc45)CC3)c(C)nc2c1 (as salt: HCl) [Compound 15]	261 to 264 °C		
Cc1nc2ccccn2c(=O)c1CCN1CC=C(c2c[nH]c3ccccc23)CC1 [Compound 1]		1.58 nM	20 nM
CSc1nc(C)c(CCN2CC=C(c3c[nH]c4ccc(F)cc34)CC2)c(=O)n1C (as salt: salt) [Compound 19]	229 °C (dec.)		
Cc1nc2ccccn2c(=O)c1CCN1CC=C(c2c[nH]c3ccc(F)cc23)CC1 [Compound 7]		0.316 nM	15.8 nM
Cc1nc2cc(-c3ccccc3)ccn2c(=O)c1CCN1CC=C(c2c[nH]c3ccccc23)CC1 [Compound 27]		0.316 nM	63.1 nM
Cc1ncn(C)c(=O)c1CCN1CC=C(c2c[nH]c3ccc(F)cc23)CC1 [Compound 33]		3.16 nM	50.1 nM
Cc1ccn2c(=O)c(CCN3CC=C(c4c[nH]c5ccccc45)CC3)c(C)nc2c1 [Compound 15]		3.98 nM	7.94 nM
CCc1ccn2c(=O)c(CCN3CC=C(c4c[nH]c5ccc(F)cc45)CC3)c(C)nc2c1 [Compound 24]		7.94 nM	10 nM
COc1nc(C)c(CCN2CC=C(c3c[nH]c4ccccc34)CC2)c(=O)n1C [Compound 18, 5-[2-[4-(1H-indol-3-yl)-1,2,3,6-tetrahydropyridin-1-yl]ethyl]-2-methoxy-3,6-dimethyl-3H-pyrimidin-4-one]		0.794 nM	31.6 nM
CSc1nc(C)c(CCN2CC=C(c3cn(C)c4ccccc34)CC2)c(=O)n1C [Compound 20]		7.94 nM	100 nM
CSc1nc(C)c(CCN2CC=C(c3c[nH]c4ccc(F)cc34)CC2)c(=O)n1C [Compound 19]		25.1 nM	6.31 nM
Cc1nc2ccccn2c(=O)c1CCN1CC=C(c2c[nH]c3ccccc23)CC1 (as salt: HCl) [Compound 1]	205 °C (dec.)		
Cc1nc2sccn2c(=O)c1CCN1CC=C(c2c[nH]c3ccccc23)CC1 [Compound 11]		2.51 nM	10 nM
Cc1nc2c(C)cccn2c(=O)c1CCN1CC=C(c2c[nH]c3ccccc23)CC1 [Compound 22, 3-[2-[4-(1H-indol-3-yl)-1,2,3,6-tetrahydropyridin-1-yl]-ethyl]-2,9-dimethyl-4H-pyrido[1,2-a]pyrimidin-4-one]		1.58 nM	7.94 nM
Cc1nc2ccccn2c(=O)c1CCN1CC=C(c2c[nH]c3ccc(F)cc23)CC1 (as salt: salt) [Compound 7]	226 to 227 °C (dec.)		
